Results taken from patent US20240353397A1, “MARKERS OF RESISTANCE AND DISEASE TOLERANCE AND USES THEREOF” (priority 2021, published 2024).

Columns and labels:
resistance (R) level = experiment: Connectivity map drug screen: effect of each drug on resistance level; type: cell-based; settings: for effect on resistance: connectivity map drug screen, at least 6 cell lines of different tissues; for Effect on resistance level: t-test, positive/negative sign = increasing/decreasing level following drug treatment
Source text: (§1) Using the drug screen of the connectivity map [Aravind Subramanian et al., Cell 171 (6): 1437-1452 (2017)], the effect of each drug on resistance and tolerance was next analyzed in at least 6 cell lines of different tissues. Identification of multiple drugs that display an effect on resistance/tolerance-related diseases allows (i) repurposing of drugs, and (ii) personalized prioritization of drugs. For instance, the screen tested three P glycoprotein inhibitors: zosuquidar, elacridar, and dofequidar. […] Thus, for specific disease in which P glycoprotein inhibitor is required, it is possible to prioritize drugs for each patient based on its baseline combination of resistance and tolerance state.

[1] = tested on: disease tolerance (T) level; experiment: Connectivity map drug screen: effect of each drug on tolerance level; type: cell-based; settings: for effect on tolerance: connectivity map drug screen, at least 6 cell lines of different tissues, all tissues under study; for Effect on tolerance level: t-test, positive/negative sign = increasing/decreasing level following drug treatment
Source text: as §1

SMILES	effect on resistance (resistance (R) level)	Effect on resistance level (resistance (R) level; tissue: breast)	Effect on resistance level (resistance (R) level; tissue: kidney)	Effect on resistance level (resistance (R) level; tissue: large intestine)	Effect on resistance level (resistance (R) level; tissue: pancreas)	Effect on resistance level (resistance (R) level; tissue: prostate)	Effect on resistance level (resistance (R) level; tissue: skin)	effect on tolerance [1]	Effect on tolerance level ([1]; tissue: breast)	Effect on tolerance level ([1]; tissue: kidney)	Effect on tolerance level ([1]; tissue: large intestine)	Effect on tolerance level ([1]; tissue: pancreas)	Effect on tolerance level ([1]; tissue: prostate)	Effect on tolerance level ([1]; tissue: skin)
O=C(C(c1ccccc1)c1ccccc1)N1CCN(CC(O)COc2cccc3ncccc23)CC1 (stereo not shown) [dofequidar]	increasing resistance	0.89 signed −log p-values	7.33 signed −log p-values	9.14 signed −log p-values	5.84 signed −log p-values	3.47 signed −log p-values	9.17 signed −log p-values	increased tolerance	6.29 signed −log p-values	2.40 signed −log p-values	6.03 signed −log p-values	2.60 signed −log p-values	1.54 signed −log p-values	0.89 signed −log p-values
COc1cc2c(cc1OC)CN(CCc1ccc(NC(=O)c3cccc4c(=O)c5cccc(OC)c5[nH]c34)cc1)CC2 [elacridar]	increasing resistance	7.26 signed −log p-values	6.87 signed −log p-values	10.56 signed −log p-values	2.33 signed −log p-values	4.37 signed −log p-values	4.66 signed −log p-values	increased tolerance	1.84 signed −log p-values	8.48 signed −log p-values	13.47 signed −log p-values	−0.10 signed −log p-values	−1.43 signed −log p-values	2.77 signed −log p-values
O[C@@H](COc1cccc2ncccc12)CN1CCN([C@@H]2c3ccccc3[C@@H]3[C@H](c4ccccc42)C3(F)F)CC1 [zosuquidar]	–	0.13 signed −log p-values	−2.54 signed −log p-values	−7.65 signed −log p-values	−2.82 signed −log p-values	−2.05 signed −log p-values	−6.00 signed −log p-values	–	11.19 signed −log p-values	5.15 signed −log p-values	5.89 signed −log p-values	5.81 signed −log p-values	5.97 signed −log p-values	2.91 signed −log p-values
